# Measured values published in PubChem BioAssay AID2060895 (Molecular Pharmacology Branch, DTP, NCI, 2025).
# Test system: PDC 899932-113-R3-J6 complex spheroid viability
# Test: Anticancer human tumor 899932-113-R3-J6-PDC patient-derived melanoma cell line growth inhibition [RAS]
# Details: for IC50: curve of first compound; for viability, T/C: stronger effect = lower value
# Outline: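 Multi-cell-type spheroids: tumor cells plus HUVEC endothelial cells and mesenchymal stem cells. RAS-pathway inhibitors were combined with targeted agents, each dosed in half-log steps down from clinical Cmax, or from 10 microM when Cmax was unknown.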
# [1] = second compound 0.0316 µM, first compound 0.0316 µM
# [2] = second compound 0.0316 µM, first compound 0.1 µM
# [3] = second compound 0.0316 µM, first compound 0.316 µM
# [4] = second compound 0.0316 µM, first compound 1 µM
# [5] = second compound 0.0316 µM, first compound 3.16 µM
# [6] = second compound 0.0316 µM, first compound 10 µM
# [7] = second compound 0.1 µM, first compound 0.0316 µM
# [8] = second compound 0.1 µM, first compound 0.1 µM
# [9] = second compound 0.1 µM, first compound 0.316 µM
# [10] = second compound 0.1 µM, first compound 1 µM
# [11] = second compound 0.1 µM, first compound 3.16 µM
# [12] = second compound 0.1 µM, first compound 10 µM
# [13] = second compound 0.316 µM, first compound 0.0316 µM
# [14] = second compound 0.316 µM, first compound 0.1 µM
# [15] = second compound 0.316 µM, first compound 0.316 µM
# [16] = second compound 0.316 µM, first compound 1 µM
# [17] = second compound 0.316 µM, first compound 3.16 µM
# [18] = second compound 0.316 µM, first compound 10 µM
# [19] = second compound 1 µM, first compound 0.0316 µM
# [20] = second compound 1 µM, first compound 0.1 µM
# [21] = second compound 1 µM, first compound 0.316 µM
# [22] = second compound 1 µM, first compound 1 µM
# [23] = second compound 1 µM, first compound 3.16 µM
# [24] = second compound 1 µM, first compound 10 µM
# [25] = second compound 3.16 µM, first compound 0.0316 µM
# [26] = second compound 3.16 µM, first compound 0.1 µM
# [27] = second compound 3.16 µM, first compound 0.316 µM
# [28] = second compound 3.16 µM, first compound 1 µM
# [29] = second compound 3.16 µM, first compound 3.16 µM
# [30] = second compound 3.16 µM, first compound 10 µM
# [31] = second compound 10 µM, first compound 0.0316 µM
# [32] = second compound 10 µM, first compound 0.1 µM
# [33] = second compound 10 µM, first compound 0.316 µM
# [34] = second compound 10 µM, first compound 1 µM
# [35] = second compound 10 µM, first compound 3.16 µM
# [36] = second compound 10 µM, first compound 10 µM
# 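Throughout, for viability, T/C: spheroids exposed to agents for seven days before readout; 100% = DMSO vehicle control wells.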
structure (smiles),measurement,setting,value
Cc1nc(N2CCC3(CC2)COC(C)C3N)c(CO)nc1Sc1ccnc(N)c1Cl (stereo unspecified) + C#Cc1c(F)ccc2cc(O)cc(-c3ncc4c(N5CC6CCC(C5)N6)nc(OCC56CCCN5CC(F)C6)nc4c3F)c12,IC50,second compound 0.0316 µM,> 10 µM
same,IC50,second compound 0.1 µM,> 10 µM
same,IC50,second compound 0.316 µM,> 10 µM
same,IC50,second compound 1 µM,> 10 µM
same,IC50,second compound 3.16 µM,> 10 µM
same,IC50,second compound 10 µM,> 10 µM
same,"viability, T/C",[1],98.1%
same,"viability, T/C",[2],104%
same,"viability, T/C",[3],108%
same,"viability, T/C",[4],104%
same,"viability, T/C",[5],118%
same,"viability, T/C",[6],119%
same,"viability, T/C",[7],99.3%
same,"viability, T/C",[8],99.1%
same,"viability, T/C",[9],107%
same,"viability, T/C",[10],103%
same,"viability, T/C",[11],114%
same,"viability, T/C",[12],123%
same,"viability, T/C",[13],111%
same,"viability, T/C",[14],101%
same,"viability, T/C",[15],96.3%
same,"viability, T/C",[16],118%
same,"viability, T/C",[17],117%
same,"viability, T/C",[18],119%
same,"viability, T/C",[19],106%
same,"viability, T/C",[20],109%
same,"viability, T/C",[21],108%
same,"viability, T/C",[22],113%
same,"viability, T/C",[23],116%
same,"viability, T/C",[24],122%
same,"viability, T/C",[25],126%
same,"viability, T/C",[26],110%
same,"viability, T/C",[27],108%
same,"viability, T/C",[28],112%
same,"viability, T/C",[29],122%
same,"viability, T/C",[30],121%
same,"viability, T/C",[31],106%
same,"viability, T/C",[32],111%
same,"viability, T/C",[33],112%
same,"viability, T/C",[34],123%
same,"viability, T/C",[35],113%
same,"viability, T/C",[36],123%
NC1c2ccccc2OC12CCN(c1cnc3c(N4CCCc5ncccc54)n[nH]c3n1)CC2 (stereo unspecified) + C#Cc1c(F)ccc2cc(O)cc(-c3ncc4c(N5CC6CCC(C5)N6)nc(OCC56CCCN5CC(F)C6)nc4c3F)c12,IC50,second compound 0.0316 µM,> 10 µM
same,IC50,second compound 0.1 µM,> 10 µM
same,IC50,second compound 0.316 µM,> 10 µM
same,IC50,second compound 1 µM,> 10 µM
same,IC50,second compound 3.16 µM,> 10 µM
same,IC50,second compound 10 µM,> 10 µM
same,"viability, T/C",[1],108%
same,"viability, T/C",[2],103%
same,"viability, T/C",[3],117%
same,"viability, T/C",[4],121%
same,"viability, T/C",[5],104%
same,"viability, T/C",[6],98.8%
same,"viability, T/C",[7],111%
same,"viability, T/C",[8],115%
same,"viability, T/C",[9],114%
same,"viability, T/C",[10],114%
same,"viability, T/C",[11],117%
same,"viability, T/C",[12],96.4%
same,"viability, T/C",[13],108%
same,"viability, T/C",[14],120%
same,"viability, T/C",[15],105%
same,"viability, T/C",[16],116%
same,"viability, T/C",[17],110%
same,"viability, T/C",[18],96.6%
same,"viability, T/C",[19],106%
same,"viability, T/C",[20],104%
same,"viability, T/C",[21],124%
same,"viability, T/C",[22],112%
same,"viability, T/C",[23],105%
same,"viability, T/C",[24],111%
same,"viability, T/C",[25],134%
same,"viability, T/C",[26],112%
same,"viability, T/C",[27],135%
same,"viability, T/C",[28],133%
same,"viability, T/C",[29],120%
same,"viability, T/C",[30],107%
same,"viability, T/C",[31],123%
same,"viability, T/C",[32],126%
same,"viability, T/C",[33],120%
same,"viability, T/C",[34],117%
same,"viability, T/C",[35],112%
same,"viability, T/C",[36],86.5%
Nc1ccn(C2OC(CO)C(O)C2(F)F)c(=O)n1 (stereo unspecified) + C#Cc1c(F)ccc2cc(O)cc(-c3ncc4c(N5CC6CCC(C5)N6)nc(OCC56CCCN5CC(F)C6)nc4c3F)c12,IC50,second compound 0.0316 µM,0.0176 µM
same,IC50,second compound 0.1 µM,0.0193 µM
same,IC50,second compound 0.316 µM,0.0171 µM
same,IC50,second compound 1 µM,0.0192 µM
same,IC50,second compound 3.16 µM,0.0165 µM
same,IC50,second compound 10 µM,0.0176 µM
same,"viability, T/C","second compound 0.0316 µM, first compound 0.00316 µM",102%
same,"viability, T/C","second compound 0.0316 µM, first compound 0.01 µM",65.1%
same,"viability, T/C",[1],35.3%
same,"viability, T/C",[2],21.2%
same,"viability, T/C",[3],18.6%
same,"viability, T/C",[4],22.1%
same,"viability, T/C","second compound 0.1 µM, first compound 0.00316 µM",95%
same,"viability, T/C","second compound 0.1 µM, first compound 0.01 µM",71.7%
same,"viability, T/C",[7],34.3%
same,"viability, T/C",[8],18.9%
same,"viability, T/C",[9],20.5%
same,"viability, T/C",[10],20.6%
same,"viability, T/C","second compound 0.316 µM, first compound 0.00316 µM",99.1%
same,"viability, T/C","second compound 0.316 µM, first compound 0.01 µM",65.1%
same,"viability, T/C",[13],33.7%
same,"viability, T/C",[14],17.9%
same,"viability, T/C",[15],20.2%
same,"viability, T/C",[16],20.1%
same,"viability, T/C","second compound 1 µM, first compound 0.00316 µM",99.2%
same,"viability, T/C","second compound 1 µM, first compound 0.01 µM",70.4%
same,"viability, T/C",[19],35.6%
same,"viability, T/C",[20],16.4%
same,"viability, T/C",[21],15.3%
same,"viability, T/C",[22],20.8%
same,"viability, T/C","second compound 3.16 µM, first compound 0.00316 µM",103%
same,"viability, T/C","second compound 3.16 µM, first compound 0.01 µM",65.6%
same,"viability, T/C",[25],29.9%
same,"viability, T/C",[26],19.8%
same,"viability, T/C",[27],17.5%
same,"viability, T/C",[28],18.8%
same,"viability, T/C","second compound 10 µM, first compound 0.00316 µM",102%
same,"viability, T/C","second compound 10 µM, first compound 0.01 µM",67.2%
same,"viability, T/C",[31],33.5%
same,"viability, T/C",[32],15.2%
same,"viability, T/C",[33],18.3%
same,"viability, T/C",[34],19.2%
